Experiments:
Format in all cases: in vivo, human
[1] = test system: ARDS patients; test: eICU (v1) dataset, statin intervention by Model C.4 subphenotype; parameters: Alive: unit not given here; settings: for Alive / Dead / Mortality: no consideration to number doses and minimum dose size
Source text: The dataset from the eICU (v1) dataset was used for analysis. The intervention of interest was statins.
The individual statins were then examined with no consideration to number of doses and minimum dose size. Using this methodology, there were several differential responses identified (bolded and underlined cells as shown below in Table 81).

[2] = test system: COVID-19 patients; test: CoDEX study dataset, dexamethasone vs placebo by Model C.4 subphenotype
Source text: The dataset from the CoDEX study was used for analysis. The CoDEX study involved treating COVID-19 patients with dexamethasone. K-means clustering was applied using Model C.4 described above in Table 70 and patients were separated into two clusters assigned to Subphenotype A and Subphenotype B. Tables 75A and 75B show the corresponding results.

[3] = test system: ARDS patients; test: eICU data filtered for patients without prior indication for statin use, statin intervention by subphenotype
Source text: This included patients with history of angina, congestive heart failure, coronary artery bypass grafting, multiple coronary artery bypass, hypertension requiring treatment, previous acute myocardial infarction, peripheral vascular disease, previous coronary intervention procedure, stroke, and/or transient ischemic attack.

[4] = test system: ARDS patients; test: eICU (v1) dataset, statin intervention by Model C.4 subphenotype; parameters: Alive: unit not given here
[5] = test system: ARDS patients; test: ARMA-KARMA-LARMA study dataset, lisofylline and ketoconazole vs placebo by subphenotype; settings: for Mortality: ARMA-KARMA-LARMA; for Dead 90: 0 0, Frequency / Dead 90: 0 0, Percent / Dead 90: 1 0, Frequency / Dead 90: 1 0, Percent: Patients administered lisofylline (title); for Dead 90: 1 0, Percent: mortality
Source text: The dataset from the ARMA-KARMA-LARMA study was used for analysis. Interventions in the study included lisofylline and ketoconazole.

[6] = admitted with drug or initiated during ICU stay, All Patients
[7] = admitted with drug or initiated during ICU stay, Subphenotype A
[8] = admitted with drug or initiated during ICU stay, Subphenotype B
[9] = initiated during ICU stay, All Patients
[10] = initiated during ICU stay, Subphenotype A
[11] = initiated during ICU stay, Subphenotype B
[12] = on drug at time of ICU admit, All Patients
[13] = on drug at time of ICU admit, Subphenotype A
[14] = on drug at time of ICU admit, Subphenotype B

What does the source list for `CC(C)c1nc(N(C)S(C)(=O)=O)nc(-c2ccc(F)cc2)c1/C=C/[C@@H](O)C[C@@H](O)CC(=O)O` [Rosuvastatin]?
Alive ([1]; All Patients): 32; Dead ([1]; All Patients): 4; Mortality ([1]; All Patients): 11%; Alive ([1]; Subphenotype A): 23; Dead ([1]; Subphenotype A): 2; Mortality ([1]; Subphenotype A): 8%; Alive ([1]; Subphenotype B): 9; Dead ([1]; Subphenotype B): 2; Mortality ([1]; Subphenotype B): 18%

Which results are given for `C[C@@H]1C[C@H]2[C@@H]3CCC4=CC(=O)C=C[C@]4(C)[C@@]3(F)[C@@H](O)C[C@]2(C)[C@@]1(O)C(=O)CO` [dexamethasone]?
28-day Mortality ([2]; Subphenotype A): 54.72%; Increase in number of vent free days versus placebo ([2]; Subphenotype A): 45%; Vent Free Days ([2]; Subphenotype A): 8.81 days; 28-day Mortality ([2]; Subphenotype B): 62.50%; Increase in number of ventilator free days versus placebo ([2]; Subphenotype B): 101%; Vent Free Days ([2]; Subphenotype B): 5.09 days

For `CC(C)c1c(C(=O)Nc2ccccc2)c(-c2ccccc2)c(-c2ccc(F)cc2)n1CC[C@@H](O)C[C@@H](O)CC(=O)O` [atorvastatin], which “Mortality Rate” value [1, 6] is on record?
Its value is 15.70.

And the Alive ([1]; All Patients)?
The Alive was 289.

And the Dead ([1]; All Patients)?
Its Dead is 54.

And the Mortality ([1]; All Patients)?
Its Mortality is 16%.

What about the Alive ([1]; Subphenotype A) of the same compound?
The Alive was 209.

What about the Dead ([1]; Subphenotype A) of the same compound?
Its Dead is 26.

What about the Mortality ([1]; Subphenotype A) of the same compound?
Its Mortality is 11%.

And the Alive ([1]; Subphenotype B)?
The Alive was 80.

And the Dead ([1]; Subphenotype B)?
The Dead was 28.

What about the Mortality ([1]; Subphenotype B) of the same compound?
The Mortality was 26%.

And the Alive [3, 6]?
Its Alive is 51.

And the Dead [3, 6]?
Its Dead is 12.

And the “Mortality Rate” value [3, 6]?
The value was 19.05.

And the Alive [3, 7]?
The Alive was 40.

What about the Dead [3, 7] of the same compound?
The Dead was 6.

And the “Mortality Rate” value [3, 7]?
Its value is 13.04.

What about the Alive [3, 8] of the same compound?
The Alive was 11.

What about the Dead [3, 8] of the same compound?
Its Dead is 6.

What about the “Mortality Rate” value [3, 8] of the same compound?
The value was 35.29.

And the Alive [3, 9]?
The Alive was 42.

And the Dead [3, 9]?
Its Dead is 9.

What about the “Mortality Rate” value [3, 9] of the same compound?
Its value is 17.65.

And the Alive [3, 10]?
Its Alive is 34.

What about the Dead [3, 10] of the same compound?
The Dead was 5.

What about the “Mortality Rate” value [3, 10] of the same compound?
Its value is 12.82.

And the Alive [3, 11]?
Its Alive is 8.

What about the Dead [3, 11] of the same compound?
Its Dead is 4.

What about the “Mortality Rate” value [3, 11] of the same compound?
Its value is 33.33.

And the Alive [3, 12]?
The Alive was 9.

And the Dead [3, 12]?
The Dead was 3.

What about the “Mortality Rate” value [3, 12] of the same compound?
Its value is 25.

What about the Alive [3, 13] of the same compound?
Its Alive is 6.

And the Dead [3, 13]?
The Dead was 1.

What about the “Mortality Rate” value [3, 13] of the same compound?
Its value is 14.29.

What about the Alive [3, 14] of the same compound?
Its Alive is 3.

And the Dead [3, 14]?
The Dead was 2.

What about the “Mortality Rate” value [3, 14] of the same compound?
The value was 40.

And the Alive [4, 6]?
The Alive was 290.

What about the Dead [4, 6] of the same compound?
The Dead was 54.

What about the Alive [4, 7] of the same compound?
The Alive was 209.

And the Dead [4, 7]?
The Dead was 26.

What about the “Mortality Rate” value [4, 7] of the same compound?
The value was 11.06.

What about the Alive [4, 8] of the same compound?
Its Alive is 81.

What about the Dead [4, 8] of the same compound?
The Dead was 28.

And the “Mortality Rate” value [4, 8]?
The value was 25.69.

What about the Alive [4, 9] of the same compound?
Its Alive is 210.

What about the Dead [4, 9] of the same compound?
Its Dead is 40.

What about the “Mortality Rate” value [4, 9] of the same compound?
Its value is 16.

What about the Alive [4, 10] of the same compound?
Its Alive is 149.

What about the Dead [4, 10] of the same compound?
Its Dead is 19.

What about the “Mortality Rate” value [4, 10] of the same compound?
The value was 11.31.

And the Alive [4, 11]?
Its Alive is 61.

What about the Dead [4, 11] of the same compound?
Its Dead is 21.

And the “Mortality Rate” value [4, 11]?
The value was 25.61.

And the Alive [4, 12]?
Its Alive is 80.

What about the Dead [4, 12] of the same compound?
The Dead was 14.

And the “Mortality Rate” value [4, 12]?
Its value is 14.89.

What about the Alive [4, 13] of the same compound?
The Alive was 60.

And the Dead [4, 13]?
The Dead was 7.

What about the “Mortality Rate” value [4, 13] of the same compound?
The value was 10.45.

What about the Alive [4, 14] of the same compound?
The Alive was 20.

And the Dead [4, 14]?
The Dead was 7.

What about the “Mortality Rate” value [4, 14] of the same compound?
Its value is 25.93.

With `C[C@@H](O)CCCCn1c(=O)c2c(ncn2C)n(C)c1=O` [lisofylline] as the compound, how does the Mortality ([5]; Subphenotype A, patients who received lisofylline) read?
The Mortality was 31.4%.

What about the Mortality ([5]; Subphenotype B, patients who got lisofylline) of the same compound?
Its Mortality is 40%.

What about the “Dead 90: 0 0, Frequency” value ([5]; Subphenotype A) of the same compound?
Its value is 36.

What about the “Dead 90: 0 0, Percent” value ([5]; Subphenotype A) of the same compound?
Its value is 72%.

And the “Dead 90: 1 0, Frequency” value ([5]; Subphenotype A)?
The value was 14.

And the “Dead 90: 1 0, Percent” value ([5]; Subphenotype A)?
Its value is 28%.

And the “Dead 90: 0 0, Frequency” value ([5]; Subphenotype B)?
Its value is 51.

And the “Dead 90: 0 0, Percent” value ([5]; Subphenotype B)?
The value was 72.86%.

And the “Dead 90: 1 0, Frequency” value ([5]; Subphenotype B)?
Its value is 19.

What about the “Dead 90: 1 0, Percent” value ([5]; Subphenotype B) of the same compound?
Its value is 27.14%.

Reference: patent US20230290452A1, “Electronic Health Record (EHR)-Based Classifier for Acute Respiratory Distress Syndrome (ARDS) Subtyping” (Endpoint Health Inc., priority 2020, published 2023)
